Experimental data reported in US11339167B2, “Substituted piperidines as kinase inhibitors” (Daewoong Pharmaceutical Co., Ltd., priority 2017, dated 2022).
Like-named read-outs stand apart in the source and are kept apart here.

Tests used:
[1] = molecular target: human BTK (Homo sapiens (Human), UniProt Q06187); test: BTK kinase inhibitory activity, ADP Glo kinase assay
[2] = molecular target: human JAK3 (Homo sapiens (Human), UniProt P52333); test: JAK3 kinase inhibitory activity, ADP Glo kinase assay; type: biochemical; conditions: recombinant purified human JAK3, ATP 5 uM, Poly(Glu4,Tyr1) peptide, 1 hour 30° C.
Sequence of human JAK3 (P52333 whole entry): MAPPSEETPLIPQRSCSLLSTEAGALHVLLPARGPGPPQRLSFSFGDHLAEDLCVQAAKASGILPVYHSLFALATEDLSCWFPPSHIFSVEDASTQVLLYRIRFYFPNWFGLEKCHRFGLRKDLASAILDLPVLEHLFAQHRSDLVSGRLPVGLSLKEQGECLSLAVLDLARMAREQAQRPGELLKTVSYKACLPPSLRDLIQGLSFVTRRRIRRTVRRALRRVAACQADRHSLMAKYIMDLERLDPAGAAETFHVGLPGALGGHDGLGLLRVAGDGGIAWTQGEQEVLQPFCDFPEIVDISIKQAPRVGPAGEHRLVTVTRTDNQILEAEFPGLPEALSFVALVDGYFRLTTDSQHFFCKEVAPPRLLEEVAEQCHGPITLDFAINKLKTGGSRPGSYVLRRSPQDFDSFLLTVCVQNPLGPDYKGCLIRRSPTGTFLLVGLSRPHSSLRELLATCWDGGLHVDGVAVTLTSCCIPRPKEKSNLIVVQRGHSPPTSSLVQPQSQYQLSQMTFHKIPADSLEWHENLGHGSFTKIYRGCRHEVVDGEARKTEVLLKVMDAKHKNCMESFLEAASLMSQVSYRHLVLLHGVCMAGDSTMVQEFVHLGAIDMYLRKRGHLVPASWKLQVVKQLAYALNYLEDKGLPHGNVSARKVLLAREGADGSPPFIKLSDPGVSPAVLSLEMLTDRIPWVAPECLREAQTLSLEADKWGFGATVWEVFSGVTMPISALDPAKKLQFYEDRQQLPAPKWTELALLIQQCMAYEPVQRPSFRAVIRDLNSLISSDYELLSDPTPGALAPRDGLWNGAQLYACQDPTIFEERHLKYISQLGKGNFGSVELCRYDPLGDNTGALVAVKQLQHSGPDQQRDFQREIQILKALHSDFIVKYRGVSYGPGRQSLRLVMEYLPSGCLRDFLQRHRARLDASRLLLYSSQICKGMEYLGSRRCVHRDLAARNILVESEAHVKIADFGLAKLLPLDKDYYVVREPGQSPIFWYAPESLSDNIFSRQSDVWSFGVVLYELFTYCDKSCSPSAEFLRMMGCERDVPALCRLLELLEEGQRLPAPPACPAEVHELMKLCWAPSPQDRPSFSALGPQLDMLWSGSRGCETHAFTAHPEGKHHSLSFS
Experimental: JAK3 and BTK kinases inhibitory activities were measured for the compounds prepared in the Examples through in vitro analysis on the ADP Glow (Glo) platform.
Specifically, the inhibitory activities against JAK3 and BTK kinase were measured using a JAK3 kinase assay kit (Promega, V9441) and a BTK kinase assay kit (Promega, V9071) which were purchased from Promega. […] After incubation (30° C.) for 1 hour, equivalent volume (25 uL per reaction) of ADP Glo was added and incubated (30° C.) for 40 minutes at room temperature. Then, a kinase detection reagent (50 uL per reaction) was added and incubated (30° C.) for 30 minutes at room temperature. The kinase activity was measured by chemiluminescence according to the instructions of ADP Glow kinase assay kit, and the inhibitory activity of the compounds according to the present disclosure was calculated.

[3] = read-out: BTK IC50, recombinant purified human BTK, ATP 10 uM, Poly(Glu4,Tyr1) peptide, 1 hour 30° C.

Sequence of human BTK (Q06187 whole entry): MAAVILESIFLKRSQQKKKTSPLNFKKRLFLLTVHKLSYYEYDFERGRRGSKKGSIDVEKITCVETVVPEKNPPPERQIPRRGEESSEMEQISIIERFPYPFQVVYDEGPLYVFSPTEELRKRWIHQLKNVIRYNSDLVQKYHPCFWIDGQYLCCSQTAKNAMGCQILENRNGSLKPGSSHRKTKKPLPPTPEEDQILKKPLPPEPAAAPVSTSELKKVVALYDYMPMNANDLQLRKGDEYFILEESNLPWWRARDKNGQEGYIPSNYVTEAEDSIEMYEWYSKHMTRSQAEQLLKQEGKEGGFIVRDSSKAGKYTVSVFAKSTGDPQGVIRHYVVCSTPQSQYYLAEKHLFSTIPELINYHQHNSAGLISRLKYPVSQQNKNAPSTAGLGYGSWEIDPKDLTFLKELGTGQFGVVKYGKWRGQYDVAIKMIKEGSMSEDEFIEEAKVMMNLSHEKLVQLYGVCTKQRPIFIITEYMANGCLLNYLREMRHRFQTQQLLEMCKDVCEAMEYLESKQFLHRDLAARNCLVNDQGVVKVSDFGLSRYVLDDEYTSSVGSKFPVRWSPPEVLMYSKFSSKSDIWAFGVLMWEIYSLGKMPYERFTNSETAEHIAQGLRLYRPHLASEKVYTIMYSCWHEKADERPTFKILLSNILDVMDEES

IC50 [1] [nM]	IC50 [2] [nM]	IC50 [1, 3] [nM]	BTK IC50 ([1]; recombinant purified human BTK, ATP 10 uM, Poly(Glu4,Tyr1) peptide, 1 hour 30° C.)	SMILES
2.5	0.3			C=CC(=O)N1CC[C@@H](F)[C@H](Oc2nc(Nc3cnn(CC(F)F)c3)nc3[nH]ccc23)C1 (racemic) [Example 2, 1-(trans-3-((2-((1-(2,2-difluoroethyl)-1H-pyrazol-4-yl)amino)-7H-pyrrolo[2,3-d]pyrimidin-4-yl)oxy)-4-fluoropiperidin-1-yl)prop-2-en-1-one]
2.8	0.4			C=CC(=O)N1CC[C@@H](F)[C@H](Oc2nc(Nc3cnn(C4CC4)c3)nc3[nH]cc(Cl)c23)C1 (racemic) [Example 10, 1-(trans-3-((5-chloro-2-((1-cyclopropyl-1H-pyrazol-4-yl)amino)-7H-pyrrolo[2,3-d]pyrimidin-4-yl)oxy)-4-fluoropiperidin-1-yl)prop-2-en-1-one]
1.3	0.2			C=CC(=O)N1CC[C@@H](F)[C@H](Oc2nc(Nc3cnn(CC)c3)nc3[nH]cc(C#N)c23)C1 (racemic) [Example 12, 4-((trans-1-acryloyl-4-fluoropiperidin-3-yl)oxy)-2-((1-ethyl-1H-pyrazol-4-yl)amino)-7H-pyrrolo[2,3-d]pyrimidine-5-carbonitrile]
1.1	0.3			C=CC(=O)N1CC[C@@H](F)[C@H](Oc2nc(Nc3cnn(C4CC4)c3)nc3[nH]cc(C#N)c23)C1 (racemic) [Example 13, 4-((trans-1-acryloyl-4-fluoropiperidin-3-yl)oxy)-2-((1-cyclopropyl-1H-pyrazol-4-yl)amino)-7H-pyrrolo[2,3-d]pyrimidine-5-carbonitrile]
5.9	0.6			C=CC(=O)N1CC[C@H](F)[C@H](Oc2nc(Nc3cnn(CC(F)F)c3)nc3[nH]cc(F)c23)C1 (racemic) [Example 16, 1-(cis-3-((2-((1-(2,2-difluoroethyl)-1H-pyrazol-4-yl)amino)-5-fluoro-7H-pyrrolo[2,3-d]pyrimidin-4-yl)oxy)-4-fluoropiperidin-1-yl)prop-2-en-1-one]
7	0.7			C=CC(=O)N1CC[C@H](F)[C@H](Oc2nc(Nc3cnn(CC(F)F)c3)nc3[nH]cc(C)c23)C1 (racemic) [Example 18, 1-(cis-3-((2-((1-(2,2-difluoroethyl)-1H-pyrazol-4-yl)amino)-5-methyl-7H-pyrrolo[2,3-d]pyrimidin-4-yl)oxy)-4-fluoropiperidin-1-yl)prop-2-en-1-one]
11.6	0.7			C=CC(=O)N1CC[C@@H](F)[C@H](Oc2nc(Nc3cnoc3)nc3[nH]ccc23)C1 (racemic) [Example 23, 1-(trans-4-fluoro-3-((2-(isoxazol-4-ylamino)-7H-pyrrolo[2,3-d]pyrimidin-4-yl)oxy)piperidin-1-yl)prop-2-en-1-one]
	0.2	1.5		C=CC(=O)N1CC[C@@H](F)[C@@H](Oc2nc(Nc3cnn(CC(F)F)c3)nc3[nH]ccc23)C1 [Example 6, 1-((3S,4R)-3-((2-((1-(2,2-difluoroethyl)-1H-pyrazol-4-yl)amino)-7H-pyrrolo[2,3-d]pyrimidin-4-yl)oxy)-4-fluoropiperidin-1-yl)prop-2-en-1-one]
	0.2	1.3		C=CC(=O)N1CC[C@@H](F)[C@@H](Oc2nc(Nc3cc(C)ns3)nc3[nH]ccc23)C1 [Example 7, 1-((3S,4R)-4-fluoro-3-((2-((3-methylisothiazol-5-yl)amino)-7H-pyrrolo[2,3-d]pyrimidin-4-yl)oxy)piperidin-1-yl)prop-2-en-1-one]
	0.2	1.4		C=CC(=O)N1CC[C@@H](F)[C@@H](Oc2nc(Nc3cnn(C4CC4)c3)nc3[nH]ccc23)C1 [Example 8, 1-((3S,4R)-3-((2-((1-cyclopropyl-1H-pyrazol-4-yl)amino)-7H-pyrrolo[2,3-d]pyrimidin-4-yl)oxy)-4-fluoropiperidin-1-yl)prop-2-en-1-one]
	0.4	3.4		C=CC(=O)N1CC[C@@H](F)[C@@H](Oc2nc(Nc3cnn(CC)c3)nc3[nH]cc(C)c23)C1 [Example 19, 1-((3S,4R)-3-((2-((1-ethyl-1H-pyrazol-4-yl)amino)-5-methyl-7H-pyrrolo[2,3-d]pyrimidin-4-yl)oxy)-4-fluoropiperidin-1-yl)prop-2-en-1-one]
	0.4	4.5		C=CC(=O)N1CC[C@@H](F)[C@@H](Oc2nc(Nc3cnn(CC(F)F)c3)nc3[nH]cc(C)c23)C1 [Example 20, 1-((3S,4R)-3-((2-((1-(2,2-difluoroethyl)-1H-pyrazol-4-yl)amino)-5-methyl-7H-pyrrolo[2,3-d]pyrimidin-4-yl)oxy)-4-fluoropiperidin-1-yl)prop-2-en-1-one]
	0.2	1.5		C=CC(=O)N1CC[C@@H](F)[C@@H](Oc2nc(Nc3cc(C)ns3)nc3[nH]cc(C)c23)C1 [Example 21, 1-((3S,4R)-4-fluoro-3-((5-methyl-2-((3-methylisothiazol-5-yl)amino)-7H-pyrrolo[2,3-d]pyrimidin-4-yl)oxy)piperidin-1-yl)prop-2-en-1-one]
	0.4	3.6		C=CC(=O)N1CC[C@@H](F)[C@@H](Oc2nc(Nc3cnn(C4CC4)c3)nc3[nH]cc(C)c23)C1 [Example 22, 1-((3S,4R)-3-(2-((1-cyclopropyl-1H-pyrazol-4-yl)amino)-5-methyl-7H-pyrrolo[2,3-d]pyrimidin-4-yloxy)-4-fluoropiperidin-1-yl)prop-2-en-1-one]
	5.9	~400		C=CC(=O)N1CC[C@@H](F)[C@H](Oc2nc(Nc3cnn(CC)c3)nc3[nH]ccc23)C1 [Example 24, 1-((3R,4R)-3-((2-((1-ethyl-1H-pyrazol-4-yl)amino)-7H-pyrrolo[2,3-d]pyrimidin-4-yl)oxy)-4-fluoropiperidin-1-yl)prop-2-en-1-one]
	0.2	2		C=CC(=O)N1CC[C@@H](F)[C@@H](Oc2nc(Nc3cnn(CC)c3)nc3[nH]cc(Cl)c23)C1 [Example 26, 1-((3S,4R)-3-((5-chloro-2-((1-ethyl-1H-pyrazol-4-yl)amino)-7H-pyrrolo[2,3-d]pyrimidin-4-yl)oxy)-4-fluoropiperidin-1-yl)prop-2-en-1-one]
	2	2.5		C=CC(=O)N1CC[C@@H](F)[C@@H](Oc2nc(Nc3cnn(CC)c3)nc3[nH]cc(F)c23)C1 [Example 27, 1-((3S,4R)-3-((2-((1-ethyl-1H-pyrazol-4-yl)amino)-5-fluoro-7H-pyrrolo[2,3-d]pyrimidin-4-yl)oxy)-4-fluoropiperidin-1-yl)prop-2-en-1-one]
	15.5	> 400		C=CC(=O)N1CC[C@H](F)[C@H](Oc2nc(Nc3cnn(CC)c3)nc3[nH]ccc23)C1 [Example 28, 1-((3R,4S)-3-((2-((1-ethyl-1H-pyrazol-4-yl)amino)-7H-pyrrolo[2,3-d]pyrimidin-4-yl)oxy)-4-fluoropiperidin-1-yl)prop-2-en-1-one]
	152	> 400		C=CC(=O)N1CC[C@H](F)[C@H](Oc2nc(Nc3cnoc3)nc3[nH]ccc23)C1 [Example 29]
	0.3	2.4		C=CC(=O)N1CC[C@@H](F)[C@@H](Oc2nc(Nc3cnn(CCO)c3)nc3[nH]ccc23)C1 [Example 30, 1-((3S,4R)-4-fluoro-3-((2-((1-(2-hydroxyethyl)-1H-pyrazol-4-yl)amino)-7H-pyrrolo[2,3-d]pyrimidin-4-yl)oxy)piperidin-1-yl)prop-2-en-1-one]
	206		No activity	C=CC(=O)N1CC[C@H](F)[C@H](Oc2nc(Nc3ccc(N4CCOCC4)cc3)nc3[nH]ccc23)C1 [Example 31, 1-((3R,4S)-4-fluoro-3-((2-((4-morpholinophenyl)amino)-7H-pyrrolo[2,3-d]pyrimidin-4-yl)oxy)piperidin-1-yl)prop-2-en-1-one]
	83.6	> 400		C=CC(=O)N1CC[C@H](F)[C@H](Oc2nc(Nc3cc(C)ns3)nc3[nH]ccc23)C1 [Example 32, 1-((3R,4S)-4-fluoro-3-((2-((3-methylisothiazol-5-yl)amino)-7H-pyrrolo[2,3-d]pyrimidin-4-yl)oxy)piperidin-1-yl)prop-2-en-1-one]
	9	> 80		C=CC(=O)N1CC[C@H](F)[C@H](Oc2nc(Nc3cnn(C4CCOCC4)c3)nc3[nH]ccc23)C1 [Example 33, 1-((3R,4S)-4-fluoro-3-((2-((1-(tetrahydro-2H-pyran-4-yl)-1H-pyrazol-4-yl)amino)-7H-pyrrolo[2,3-d]pyrimidin-4-yl)oxy)piperidin-1-yl)prop-2-en-1-one]
	51.9			C=CC(=O)N1CC[C@H](F)[C@H](Oc2nc(Nc3cnn(C4CC4)c3)nc3[nH]ccc23)C1 [Example 35, 1-((3R,4S)-3-((2-((1-cyclopropyl-1H-pyrazol-4-yl)amino)-7H-pyrrolo[2,3-d]pyrimidin-4-yl)oxy)-4-fluoropiperidin-1-yl)prop-2-en-1-one]
	0.8			C=CC(=O)N1CC[C@@H](F)[C@@H](Oc2nc(Nc3cnn(C4CCNCC4)c3)nc3[nH]ccc23)C1 [Example 36, 1-((3S,4R)-4-fluoro-3-((2-((1-(piperidin-4-yl)-1H-pyrazol-4-yl)amino)-7H-pyrrolo[2,3-d]pyrimidin-4-yl)oxy)piperidin-1-yl)prop-2-en-1-one]
